Source: article PMC5840146, “Structure-Activity Relationship Analysis of 3-Phenylcoumarin-Based Monoamine Oxidase B Inhibitors” (Frontiers in Chemistry, 2018)

Tests used:
Format in all cases: biochemical
[1] = target: T1, MAO-A (Homo sapiens, UniProt P21397); test: continuous spectrophotometric MAO-A inhibition assay; settings: for MAO-A inhibition %: 100 µM, 1h
T1 construct: purchased Sigma-Aldrich
T1 sequence (P21397 1-527): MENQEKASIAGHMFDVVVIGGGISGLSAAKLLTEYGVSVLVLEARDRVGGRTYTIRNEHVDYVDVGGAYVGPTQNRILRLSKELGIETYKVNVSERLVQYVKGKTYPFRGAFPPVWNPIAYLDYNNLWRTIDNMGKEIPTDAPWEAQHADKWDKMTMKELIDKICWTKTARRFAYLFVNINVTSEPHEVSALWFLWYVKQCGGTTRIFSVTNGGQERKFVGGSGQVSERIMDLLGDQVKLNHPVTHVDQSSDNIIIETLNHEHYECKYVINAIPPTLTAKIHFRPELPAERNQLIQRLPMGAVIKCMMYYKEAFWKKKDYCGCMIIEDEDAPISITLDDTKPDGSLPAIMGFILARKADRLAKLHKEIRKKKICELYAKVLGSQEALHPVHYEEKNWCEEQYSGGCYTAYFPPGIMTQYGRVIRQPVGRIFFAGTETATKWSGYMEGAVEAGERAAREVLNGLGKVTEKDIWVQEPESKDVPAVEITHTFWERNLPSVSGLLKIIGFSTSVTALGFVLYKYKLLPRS
Experimental: Both monoamine oxidase A (MAO-A) and B (MAO-B) protein and the reagents for the chromogenic solution of vanillic acid (4-hydroxy-3-methoxylbenzoic acid, 97% purity), 4-aminoantipyrine (reagent grade), horseradish peroxidase and the substrate tyramine hydrochloride (minimum 99% purity) as well as the potassium phosphate buffer, which was prepared using potassium phosphate dibasic trihydrate (≥99% ReagentPlus™) and potassium phosphate monobasic (minimum 98% purity, molecular biology tested), were purchased from Sigma-Aldrich (St. Louis, MO, USA) for the spectrophotometric assay.
The protocol for continuous spectrophotometric assay (Holt et al., [1997]) was followed in the activity measurements. The assay was performed in 0.2 M potassium phosphate buffer pH 7.6 on 96-well plates (Nunc™ 96F microwell plate without a lid, Nunc A/S, Roskilde, DK) in 200 μl total volume. The chromogenic solution containing 1 mM vanillic acid, 500 μM 4-aminoantipyrine and 8 U/ml horseradish peroxidase in 0.2 M potassium phosphate buffer pH 7.6 was mixed anew for each measurement. 5 mM tyramine solution was used as the substrate. In order to determine the activity of both MAO-B and MAO-A, concentration series as duplicates were prepared. The protein was combined with the chromogenic solution and incubated 30 min at 37°C. The background signal was measured using multilabel reader (Victor^TM X4, 2030 Multilabel Reader, PerkinElmer, Waltham, MA, USA) at A490 before reaching the total 200 μl volume by adding 20 μl of tyramine to final concentration of 0.5 mM on the plate. As a result, the final concentration of the chromogenic solution on the plate was 250 μM vanillic acid, 125 μM 4-aminoantipyrine and 2 U/ml horseradish peroxide. After adding the substrate, the plates were measured 300 times every 15 s using 1 s exposure time. The device was set to 37°C for the duration of the experiment.
The experiment conditions should produce absorbance change of ~0.35 (Holt et al., [1997]). […] The same wide panel of coumarin derivatives was additionally used to analyze the MAO-A inhibition at 100 μM (Table 1, Supplementary Table S1).
The measured data was then fitted on a curve using non-linear regression with the equation for log[inhibitor] vs. response. The IC50 values were therefore determined based on the curve fit. The fitted curves are shown on –log scale in Supplementary Figures S1, S2.

[2] = target: T2, recombinant human HSD1 (Homo sapiens, UniProt P14061); test: HSD1 inhibition by HPLC with tritium labeled estrone/estradiol; settings: 1 μM
T2 construct: made in house; host or cells: Sf9 insect cells
T2 sequence (P14061 1-328): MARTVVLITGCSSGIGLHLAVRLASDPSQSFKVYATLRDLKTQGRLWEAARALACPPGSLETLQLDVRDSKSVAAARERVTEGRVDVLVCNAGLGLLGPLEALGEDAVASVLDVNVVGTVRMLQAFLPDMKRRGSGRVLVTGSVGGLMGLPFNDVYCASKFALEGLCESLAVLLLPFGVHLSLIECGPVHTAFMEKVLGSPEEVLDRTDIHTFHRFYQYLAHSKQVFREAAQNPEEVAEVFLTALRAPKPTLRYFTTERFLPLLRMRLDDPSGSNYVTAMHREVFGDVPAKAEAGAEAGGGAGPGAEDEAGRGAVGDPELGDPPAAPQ

[3] = target: T3, human CYP1A2 (Homo sapiens, UniProt P05177); test: CYP1A2 inhibition, 7-ethoxyresorufin fluorescence assay
T3 construct: purchased Corning Inc
T3 sequence (P05177 1-516): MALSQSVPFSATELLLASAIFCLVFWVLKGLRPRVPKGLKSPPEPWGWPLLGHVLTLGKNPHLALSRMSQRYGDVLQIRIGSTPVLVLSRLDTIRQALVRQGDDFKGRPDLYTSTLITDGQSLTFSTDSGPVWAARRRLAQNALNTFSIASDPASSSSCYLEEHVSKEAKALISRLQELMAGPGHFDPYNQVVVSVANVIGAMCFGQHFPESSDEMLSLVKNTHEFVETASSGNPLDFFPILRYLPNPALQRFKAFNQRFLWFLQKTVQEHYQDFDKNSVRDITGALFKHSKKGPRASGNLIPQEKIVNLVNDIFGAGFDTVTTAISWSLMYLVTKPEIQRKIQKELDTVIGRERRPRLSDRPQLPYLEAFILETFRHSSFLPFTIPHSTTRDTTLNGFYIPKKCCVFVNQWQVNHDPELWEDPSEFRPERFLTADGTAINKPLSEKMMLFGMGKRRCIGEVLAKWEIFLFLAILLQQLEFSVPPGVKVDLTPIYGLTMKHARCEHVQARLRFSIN
Experimental: Inhibition of CYP1A2 activity was determined with commercial heterologously expressed human CYP1A2 enzyme (Corning Inc., Corning, NY, USA) as described earlier (Korhonen et al., [2005]). The metabolic activity was not in the scope of this particular study. The assay was adapted to the 96-well plate format. In each well, a 150 μL incubation volume contained 100 mM Tris-HCl buffer (pH 7.4), 4.2 mM MgCl2,1 μM 7-ethoxyresorufin, 0.5 pmol of cDNA expressed CYP1A2, […] inhibitor, and a NADPH-generating system. All inhibitors were dissolved in ethanol, and the final concentration of ethanol was 2% in all incubations. The reaction was initiated by adding the NADPH-regenerating system after a 10 min preincubation at 37°C, and after a 20 min incubation, the reaction was terminated by the addition of 110 μL of 80% acetonitrile/20% 0.5 M Tris base. The formed fluorescence was measured with a Victor2 plate counter (Perkin-Elmer Life Sciences Wallac, Turku, Finland) at 570 nm excitation and 616 nm emission.

SMILES | inhibition at 100 µM [1] | inhibition at 1 µM [2] | IC50 [3] | HSD1 inhibition % [2] | MAO-A inhibition % [1]
COc1cccc(-c2cc3cc(OC)ccc3oc2=O)c1 [derivative 8, 6-methoxy-3-(3-methoxyphenyl)-2H-chromen-2-one] | 0% | 0% | 2.3 µM |  | 
COc1cccc(-c2cc3ccccc3oc2=O)c1 [derivative 11, 3-(3-methoxyphenyl)-2H-chromen-2-one] | 0% | 4% | 1.6 µM |  | 
COc1ccc(-c2cc3ccc(O)cc3oc2=O)cc1 [derivative 12, 7-hydroxy-3-(4-methoxyphenyl)-2H-chromen-2-one] | 24.6% | 3% | 170 µM |  | 
COc1ccc2oc(=O)c(-c3cc(F)c(F)cc3F)cc2c1 [derivative 15, 6-methoxy-3-(2,4,5-trifluorophenyl)-2H-chromen-2-one] | 0% | 12% | 3 µM |  | 
COc1ccc2cc(-c3cc(F)c(F)cc3F)c(=O)oc2c1 [derivative 16, 7-methoxy-3-(2,4,5-trifluorophenyl)-2H-chromen-2-one] |  | 33% | 4.5 µM |  | 
COc1ccc2cc(-c3ccc(O)c(F)c3)c(=O)oc2c1 [derivative 20, 3-(3-fluoro-4-hydroxyphenyl)-7-methoxy-2H-chromen-2-one] | 0% | 46% | 30 µM |  | 
COc1ccc2oc(=O)c(-c3ccc(O)c(F)c3)cc2c1 [derivative 22, 3-(3-fluoro-4-hydroxyphenyl)-6-methoxy-2H-chromen-2-one] | 0% | 54% | 1.5 µM |  | 
COc1cccc(-c2cc3ccc(OC)cc3oc2=O)c1 [derivative 25] |  |  | 35 µM | 3.50% | 0.00%
CC(=O)Oc1ccc2cc(-c3ccc(F)cc3)c(=O)oc2c1 [derivative 28] |  |  | 114 µM | 0.30% | 0.00%
O=c1oc2ccccc2cc1-c1cccc(O)c1 [derivative 31] |  |  | 7 µM | 56.00% | 4.14%
COc1ccc(-c2cc3cccc(O)c3oc2=O)cc1 [derivative 33] |  |  | 86 µM | 76.70% | 3.66%
COc1ccc(-c2cc3ccccc3oc2=O)cc1 [derivative 36] |  |  | 26 µM | 3.80% | 0.87%
O=c1oc2ccc(O)cc2cc1-c1cccc(O)c1 [derivative 38] |  |  | 24 µM | 49.10% | 13.11%
O=c1oc2cc(O)ccc2cc1-c1ccccc1 [derivative 41] |  |  | 8 µM |  | 9.52%
COc1ccc2oc(=O)c(-c3ccc(Oc4ccc(F)cc4)cc3)cc2c1 [derivative 46] |  |  | 240 µM | 0.00% | 8.11%

Continued, values first:

inhibition at 100 µM [1] | inhibition at 1 µM [2] | IC50 [3] | HSD1 inhibition % [2] | MAO-A inhibition % [1] | SMILES
0% | 0% | 171 µM |  |  | Cc1ccc2oc(=O)c(-c3ccc(C(F)(F)F)cc3)cc2c1 [derivative 5, 6-methyl-3-(4-(trifluoromethyl)phenyl)-2H-chromen-2-one]
0% | 1% | 17 µM |  |  | COc1ccc2oc(=O)c(-c3ccc(N(C)C)cc3)cc2c1 [derivative 18, 3-(4-(dimethylamino)phenyl)-6-methoxy-2H-chromen-2-one]
0% | 0% | 3 µM |  |  | COc1ccc2oc(=O)c(-c3ccc(F)cc3)cc2c1 [derivative 21, 3-(4-fluorophenyl)-6-methoxy-2H-chromen-2-one]
0% | 12 to 33% | 3 µM | 11% |  | Cc1ccc2oc(=O)c(-c3ccc(F)cc3)cc2c1 [derivative 23, 3-(4-fluorophenyl)-6-methyl-2H-chromen-2-one]
14.2% | 20% | 3 µM |  |  | O=c1oc2ccc(O)cc2cc1-c1ccc(F)cc1 [derivative 24, 3-(4-fluorophenyl)-6-hydroxy-2H-chromen-2-one]
 |  | 180 µM | 12.50% | 43.83% | Cc1ccc(-c2cc3ccc(O)cc3oc2=O)cc1 [derivative 27]
 |  | 26 µM | 5.40% | 0.00% | O=c1oc2ccccc2cc1-c1ccc(O)cc1 [derivative 29]
 |  | 22 µM | 48.20% | 0.00% | O=c1oc2cc(O)ccc2cc1-c1ccc(O)cc1 [derivative 30]
 |  | 240 µM | 0.00% | 12.56% | O=c1oc2cc(O)ccc2cc1-c1ccc(F)cc1 [derivative 39]
 |  | 33 µM | 83.90% | 0.00% | O=c1oc2ccc(O)cc2cc1-c1ccc(O)cc1 [derivative 48]
